“Also recorded” adds a separate entry of the source.
How the values were obtained:
[1] = tested on: chronic hypoxic-pulmonary artery hypertension (CH-PAH); experiment: Mean pulmonary arterial pressure (PAP) in chronic hypoxic (CH-PAH) rat model; format: in vivo
Method: To study the mechanisms of PAH and its possible treatments, an animal model was utilized. The placement of rats in a hypobaric chamber for 7 to 21 days induced chronic hypoxia, resulting in CH-PAH, a useful model system for studying mammalian PAH.
The rat model experiments were performed as follows. Adult male Wistar rats (220-240 g) were randomized into five groups. […] Intravascular administration was performed via the catheter inserted in the right jugular vein.

[2] = tested on: IPA wall; experiment: CH-induced intrapulmonary artery (IPA) wall remodeling, media layer thickness; format: in vivo, rat
Method: Lung sections were formalin-fixed in preparation for histology studies. PA external diameter (PAED), PA internal diameter (PAID), and percentage vessel wall thickness (PAED−PAID)/PAED×100) were measured in small- and medium-sized PAs (80-150 μm). Each group was comprised of four rats, and 10 measures were made per rat by an investigator blinded to the treatment groups.
CH induces remodeling of the intrapulmonary artery (IPA) in the rat model of CH-PAH. To examine the changes in the IPA wall upon CH exposure, the following method was performed. Isometric contractions were measured in rings from IPAs that were mounted in vertical 5-ml organ baths of a computerized isolated organ bath system (IOX, EMKA Technologies, Paris), as described in Bonnet, S., et al. (2001, Am. J. Physiol. 281, L183-L192, which is incorporated by reference herein in its entirety). Baths were filled with Krebs-Henseleit solution (composition in mM: 118.4 NaCl/4.7 KCl/2.5 CaCl2/1.2 MgSO4/1.2 KH2PO4/25 NaHCO3/11.1 D-glucose, pH 7.4). The baths were maintained at 37° C. and bubbled with a 95% O2/5% CO2 gas mixture. The tissues were set at optimal length by equilibration against a passive load of 10 mN for rings obtained from normoxic rats and 20 mN for rings obtained from hypoxic rats (Jones, J. E., et al. (2002) Am. J. Physiol. 283, H364-H371, which is incorporated by reference herein in its entirety). A cumulative concentration-response curve was then constructed. A concentration increment was made once the maximal contractile effect of the preceding concentration had been recorded.

[3] = tested on: PASMCs; experiment: Resting [Ca2+]i of PASMCs from orally DHEA-treated CH rats (indo-1); format: in vivo, rat; settings: for effect on [Ca2+]i of PASMCs: CH rats
Method: (§1) The heart and lungs were removed and intrapulmonary arteries (IPAs) (150-300 μm of internal diameter) were then dissected. The adventitial and intimal layers were removed. For contraction experiments, rings (3 mm in length) were prepared.
As mentioned earlier, Ca^2+ is thought to play an important role in the response to chronic hypoxia. To measure the effects of DHEA on [Ca^2+]i of individual PASMCs, a [Ca^2+]i-sensitive fluorophore, indo-1 (Calbiochem, San Diego, Calif.), was employed. PASMCs were loaded with indo-1 by incubation in physiological salt solution (139.6 mM NaCl/6.2 mM KCl/1 mM MgCl2/12.1 mM glucose/10 mM Hepes) containing 1 μM indo-1 penta-acetoxymethyl ester (Indo-1 a.m.) for 25 minutes at room temperature. The recording system included a Nikon Diaphot inverted microscope fitted with epifluorescence. The studied cell was illuminated at 360 nm and counted simultaneously at 405 nm and 480 nm by two photomultipliers (P100, Nikon). […] [Ca^2+]i was estimated from the 405:480 ratio (Bonnet, S., et al. (2001) Am. J. Physiol. 281, L193-L201).

[4] = tested on: PASMCs from CH rats; experiment: In vitro DHEA treatment of PASMCs, resting [Ca2+]i, with K channel blockers and pathway inhibitors; format: cell-based, rat
Method: as §1
As mentioned earlier, Ca^2+ is thought to play an important role in the response to chronic hypoxia. To measure the effects of DHEA on [Ca^2+]i of individual PASMCs, a [Ca^2+]i-sensitive fluorophore, indo-1 (Calbiochem, San Diego, Calif.), was employed. […] The recording system included a Nikon Diaphot inverted microscope fitted with epifluorescence.
To further examine how DHEA functions to decrease the [Ca^2+]i in PASMCs, the following experiment was performed.

[5] = molecular target: T1, BKCa (Homo sapiens, UniProt Q12791); settings: hypoxic human pulmonary cells, Peng et al. 1999; cited from earlier work
T1 construct: host or cells: hypoxic human pulmonary cells

[6] = cited from earlier work

T1 sequence (Q12791 whole entry): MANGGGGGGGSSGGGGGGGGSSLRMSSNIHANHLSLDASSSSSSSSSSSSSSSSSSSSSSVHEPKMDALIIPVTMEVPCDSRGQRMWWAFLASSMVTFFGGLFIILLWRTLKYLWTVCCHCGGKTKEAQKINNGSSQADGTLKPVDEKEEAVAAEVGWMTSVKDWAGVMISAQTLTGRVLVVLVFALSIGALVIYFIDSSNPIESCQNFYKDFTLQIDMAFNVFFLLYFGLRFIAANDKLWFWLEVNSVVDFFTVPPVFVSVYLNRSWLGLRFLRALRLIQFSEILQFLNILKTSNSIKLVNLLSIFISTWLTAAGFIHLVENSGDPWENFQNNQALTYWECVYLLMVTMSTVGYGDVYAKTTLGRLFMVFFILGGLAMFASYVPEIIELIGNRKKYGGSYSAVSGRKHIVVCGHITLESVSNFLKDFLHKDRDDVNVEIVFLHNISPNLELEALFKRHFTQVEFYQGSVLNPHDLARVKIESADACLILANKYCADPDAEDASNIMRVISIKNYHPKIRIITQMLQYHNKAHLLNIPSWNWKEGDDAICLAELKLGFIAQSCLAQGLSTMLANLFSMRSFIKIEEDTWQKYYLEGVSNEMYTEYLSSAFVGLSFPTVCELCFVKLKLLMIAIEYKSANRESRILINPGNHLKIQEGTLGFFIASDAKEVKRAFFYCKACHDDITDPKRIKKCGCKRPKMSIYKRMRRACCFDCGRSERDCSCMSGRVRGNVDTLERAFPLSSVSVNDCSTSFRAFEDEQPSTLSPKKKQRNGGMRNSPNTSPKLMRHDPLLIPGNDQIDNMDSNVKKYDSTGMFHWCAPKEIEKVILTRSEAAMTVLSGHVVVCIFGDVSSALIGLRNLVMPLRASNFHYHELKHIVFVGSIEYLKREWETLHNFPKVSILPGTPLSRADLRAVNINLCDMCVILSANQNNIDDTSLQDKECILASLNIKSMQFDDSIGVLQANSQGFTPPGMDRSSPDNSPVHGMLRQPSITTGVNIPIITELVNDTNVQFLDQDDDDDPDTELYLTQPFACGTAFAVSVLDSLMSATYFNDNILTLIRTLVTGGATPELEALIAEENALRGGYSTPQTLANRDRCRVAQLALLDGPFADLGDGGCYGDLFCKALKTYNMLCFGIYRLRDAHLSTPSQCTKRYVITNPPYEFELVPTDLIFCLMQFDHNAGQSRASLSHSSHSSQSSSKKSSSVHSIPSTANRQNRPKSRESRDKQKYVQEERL

Structure (SMILES): C[C@]12CC[C@H](O)CC1=CC[C@@H]1[C@@H]2CC[C@]2(C)C(=O)CC[C@@H]12 [DHEA, dehydroepiandrosterone]
- effect of additional intravascular DHEA on PAP ([1]; 3-week CH-DHEA treated rats): did not further reduce PAP; also recorded: no effect
- PAP ([1]; 3-wk CH rats, ten minutes after acute intravascular DHEA 3 mg/kg, before 34.5±1.7): 24.4±2.5 mmHg
- dose dependence of PAP decrease ([1]; CH rats, intravascular, successively increasing doses up to 3 mg/kg): dose-dependent manner
- effect on PAP/PAH ([1]; CH rats, single intravascular dose of DHEA 3 mg/kg): significant decrease in PAP; also recorded: significantly decreased PAH
- PAP ([1]; CH-DHEA rats: oral DHEA 30 mg/kg every alternate day during 3 wk hypoxia, untreated CH 34.5±1.7): 21.7±1.1 mm Hg
- decrease of PAP ([1]; CH-PAH rats, intravascular 0.03 mg/kg): ~10%
- decrease in PAP ([1]; CH-PAH rats, intravascular 0.3 mg/kg): ~25%
- decrease in PAP ([1]; CH-PAH rats, intravascular 3.0 mg/kg): ~45%
- PAP, CH-DHEA vs control rats ([1]; after 1 or 2 wk of hypoxia exposure with oral DHEA): no difference
- effect of intravascular DHEA on PAP ([1]; control animals): no effect
- effect on PAP/PAH (reversal) ([1]; hypertensive CH rats, 1-wk oral DHEA 30 mg/kg every alternate day): partially but significantly reversed; also recorded: significantly decreased PAH
- effect on PAP (prevention) ([1]; oral DHEA for 3 weeks during chronic hypoxia, vs CH rats): significant preventive effect; also recorded: decreased; also recorded: almost entirely prevent
- effect on PAP ([1]; oral DHEA, normoxic rats): no effect
- PAP ([1]; rats 3 weeks in CH, oral DHEA during the last week, no DHEA 35.9±1.9): 21±1.1 mm Hg
- increase in media layer thickness compared with control rats ([2]; CH-DHEA rats, 3 weeks, CH untreated 33%): 11%
- effect on PA wall remodeling (prevention) ([2]; oral DHEA 3 weeks during CH): significant protective effect; also recorded: almost entirely prevent; also recorded: prevented the PA wall remodeling
- effect on PA wall remodeling (reversal) ([2]; oral DHEA during last week of 3 weeks CH): partially but significantly reversed; also recorded: decreased the PA remodeling
- resting [Ca2+]i value of PASMCs ([3]; CH-DHEA rats (3 wk oral DHEA), CH 143±7, control 69.2±2.2): 90.1 ± 3.2 nM
- resting [Ca2+]i value of PASMCs ([3]; DHEA from day 15 to day 21 of chronic hypoxia, untreated 143±7): 105 ± 3 nM
- effect on [Ca2+]i of PASMCs ([3]; oral DHEA for 1 week): significant decrease; also recorded: decrease in [Ca^2+]i
- effect on [Ca2+]i of PASMCs ([3]; oral DHEA for 3 weeks): significant decrease; also recorded: decrease in [Ca^2+]i
- effect on [Ca2+]i ([4]; DHEA 100 μM, PASMCs from normoxic, normoxic-DHEA and CH-DHEA rats): did not alter
- resting [Ca2+]i value ([4]; PASMCs from CH rats, 15 minute in vitro 100 μM DHEA, before 143±7): 82 ± 3 nM
- effect on resting [Ca2+]i ([4]; PASMCs from CH rats, in vitro DHEA 100 μM): significant decrease; also recorded: decrease of the resting [Ca^2+]i
- action on BKCa [5]: BKCa opener
- toxicity in short- and long-term human studies ([6]; Baulieu et al. 2000): without major toxicity
- safety of large amounts in human patients ([6]; Tummala & Svec 1999): safely administered

Source: patent US20070232575A1, “Treatment of Pulmonary Artery Hypertension with Dhea, Dheas, Dhea Analogs, or Dhea Derivatives” (priority 2004, published 2007)
